Experimental data taken from patent publication US20080064668A1, “1,3-Diacylated, 26,27-Alkyl/Haloakyl Vitamin D3 Compounds and Methods of Use Thereof” (BioXell S.p.A., priority 2003, published 2008).

Key:
[1] = Determination of Maximum Tolerated Dose (MTD)
Procedure: The maximum tolerated dose of the vitamin D3 compounds of the invention were determined in eight week-old female C57BL/6 mice (3 mice/group) dosed orally (0.1 ml/mouse) with various concentrations of Vitamin D3 analogs daily for four days. Analogs were formulated in miglyol for a final concentration of 0.01, 0.03, 0.1 0.3, 1, 3, 10, 30, 100 and 300 μg/kg when given at 0.1 ml/mouse p.o. daily. Blood for serum calcium assay was drawn by tail bleed on day five, the final day of the study.

[2] = system: ECV; assay: Proliferation assay using bladder cancer cell lines, ECV; format: cell-based, human; settings: Homo sapiens; 72 h culture, CyQuant proliferation assay
[3] = system: HT 1376; assay: Proliferation assay using bladder cancer cell lines, HT1376; format: cell-based, human; settings: Homo sapiens, HT-1376; 72 h culture, CyQuant proliferation assay
Procedure: (§1) Bladder cancer cell lines (T24, RT112, HT1376 and RT4 are human bladder cancer cell lines; NHEK are normal human keratinocytes) were obtained from the European Collection of Cell Cultures (Salisbury, UK). Cells were plated at 3×10^3 per well, in flat bottomed 96-well plates in 100 μl of DMEM medium containing: 5% Fetal Clone I, 50 μg/l gentamicin, 1 mM sodium pyruvate and 1% non-essential amino acids. After culturing for 24 h at 37° C. in 5% CO2, to allow cells to adhere to the plates, VDR ligands (compounds (2), (4), (5) and other vitamin D3 analogs as shown in Table 4) were added at concentrations ranging from 100 μM to 0.3 μM in 100 μl of above-mentioned complete medium. After a further 72 h of culture, cell proliferation was measured using a fluorescence-based proliferation assay kit. (CyQuant Cell Proliferation Assay Kit, Molecular Probes, Eugene, Oreg., USA). The IC50 was calculated from the regression curve of the titration data.

[4] = system: NHEK; assay: Proliferation assay, NHEK normal human keratinocytes; format: cell-based; settings: Homo sapiens, NHEK; 72 h culture, CyQuant proliferation assay
Procedure: as §1

[5] = system: non-obese (NOD)/Lt mice; assay: Inhibition of Type 1 Diabetes development by VDR ligand administration; format: in vivo; settings: for mice diabetic by 27 weeks of age: vehicle controls about 70%
Procedure: The non-obese (NOD)/Lt mice used for the experiments were purchased from Charles River Laboratories (Calco, Italy). All mice were kept under specific pathogen-free conditions. Glucose levels in the tail venous blood were quantified using a EUROFlash (Lifescan, Issy les Moulineaux, France). A diagnosis of diabetes was after two sequential glucose measurements higher than 200 mg/dl.
(§2) 1,3-Di-O-acetyl-1,25-dihydroxy-16,23Z-diene-26,27-hexafluoro-19-nor-cholecalciferol (2) was dissolved in ethanol (1 mg/ml) and then diluted in miglyol 812. […]

[6] = NOD mouse body weight; format: in vivo, mice
Procedure: as §2

CC(=O)OC1C/C(=C/C=C2\CCC[C@]3(C)C(C(C)C/C=C\C(O)(C(F)(F)F)C(F)(F)F)=CCC23)C[C@@H](OC(C)=O)C1 (stereo partly drawn) [Compound (2), 1,3-Di-O-acetyl-1,25-dihydroxy-16,23Z-diene-26,27-hexafluoro-19-nor-cholecalciferol]
MTD at 4 days ([1]; female, C57BL/6, mouse, in vivo, po): 0.1 µg/kg | MTD relative to compound (1) ([1]; mice, MTD of (2) versus parent (1)): more than 300 times | MTD compared with the corresponding dihydroxy (parent) compound ([1]; versus (1) or (3)): significantly higher | IC50 [2]: 55 µM | IC50 [3]: 100 µM | IC50 [4]: 9.8 µM | Percent Type 1 Diabetes Mellitus incidence ([5]; 0.1 ug/kg p.o., week 8): 2% | Percent Type 1 Diabetes Mellitus incidence ([5]; 0.1 ug/kg p.o., week 12): 2% | Percent Type 1 Diabetes Mellitus incidence ([5]; 0.1 ug/kg p.o., week 13): 2% | Percent Type 1 Diabetes Mellitus incidence ([5]; 0.1 ug/kg p.o., week 14): 2% | Percent Type 1 Diabetes Mellitus incidence ([5]; 0.1 ug/kg p.o., week 15): 2% | Percent Type 1 Diabetes Mellitus incidence ([5]; 0.1 ug/kg p.o., week 16): 2% | Percent Type 1 Diabetes Mellitus incidence ([5]; 0.1 ug/kg p.o., week 17): 10% | Percent Type 1 Diabetes Mellitus incidence ([5]; 0.1 ug/kg p.o., week 18): 10% | Percent Type 1 Diabetes Mellitus incidence ([5]; 0.1 ug/kg p.o., week 19): 10% | Percent Type 1 Diabetes Mellitus incidence ([5]; 0.1 ug/kg p.o., week 20): 10% | Percent Type 1 Diabetes Mellitus incidence ([5]; 0.1 ug/kg p.o., week 21): 20% | Percent Type 1 Diabetes Mellitus incidence ([5]; 0.1 ug/kg p.o., week 22): 30% | Percent Type 1 Diabetes Mellitus incidence ([5]; 0.1 ug/kg p.o., week 23): 30% | Percent Type 1 Diabetes Mellitus incidence ([5]; 0.1 ug/kg p.o., week 24): 40% | Percent Type 1 Diabetes Mellitus incidence ([5]; 0.1 ug/kg p.o., week 25): 40% | Percent Type 1 Diabetes Mellitus incidence ([5]; 0.1 ug/kg p.o., week 26): 40% | Percent Type 1 Diabetes Mellitus incidence ([5]; 0.1 ug/kg p.o., week 27): 40% | mice diabetic by 27 weeks of age ([5]; 0.1 mg/Kg per os 5×/week from 8 to 16 weeks of age): 30% | mice diabetic by 27 weeks of age ([5]; 0.2 mg/Kg per os 5×/week from 8 to 16 weeks of age): 40% | Percent Type 1 Diabetes Mellitus incidence ([5]; 0.2 mg/kg p.o., week 8): 1% | Percent Type 1 Diabetes Mellitus incidence ([5]; 0.2 mg/kg p.o., week 12): 1% | Percent Type 1 Diabetes Mellitus incidence ([5]; 0.2 mg/kg p.o., week 13): 1% | Percent Type 1 Diabetes Mellitus incidence ([5]; 0.2 mg/kg p.o., week 14): 1% | Percent Type 1 Diabetes Mellitus incidence ([5]; 0.2 mg/kg p.o., week 15): 1% | Percent Type 1 Diabetes Mellitus incidence ([5]; 0.2 mg/kg p.o., week 16): 1% | Percent Type 1 Diabetes Mellitus incidence ([5]; 0.2 mg/kg p.o., week 17): 1% | Percent Type 1 Diabetes Mellitus incidence ([5]; 0.2 mg/kg p.o., week 18): 1% | Percent Type 1 Diabetes Mellitus incidence ([5]; 0.2 mg/kg p.o., week 19): 1% | Percent Type 1 Diabetes Mellitus incidence ([5]; 0.2 mg/kg p.o., week 20): 10% | Percent Type 1 Diabetes Mellitus incidence ([5]; 0.2 mg/kg p.o., week 21): 10% | Percent Type 1 Diabetes Mellitus incidence ([5]; 0.2 mg/kg p.o., week 22): 10% | Percent Type 1 Diabetes Mellitus incidence ([5]; 0.2 mg/kg p.o., week 23): 20% | Percent Type 1 Diabetes Mellitus incidence ([5]; 0.2 mg/kg p.o., week 24): 20% | Percent Type 1 Diabetes Mellitus incidence ([5]; 0.2 mg/kg p.o., week 25): 20% | Percent Type 1 Diabetes Mellitus incidence ([5]; 0.2 mg/kg p.o., week 26): 30% | Percent Type 1 Diabetes Mellitus incidence ([5]; 0.2 mg/kg p.o., week 27): 30% | incidence of disease compared to controls ([5]; NOD/Lt female mice, 0.1 or 0.2 mg/Kg per os): significantly lower | effect on body weight ([6]; 0.1 mg/Kg or 0.2 mg/Kg dose): did not affect body weight | NOD mouse body weight ([6]; 0.1 mg/kg p.o., week 8): 22.07 g | NOD mouse body weight ([6]; 0.1 mg/kg p.o., week 9): 22.98 g | NOD mouse body weight ([6]; 0.1 mg/kg p.o., week 10): 22.77 g | NOD mouse body weight ([6]; 0.1 mg/kg p.o., week 11): 23.4 g | NOD mouse body weight ([6]; 0.1 mg/kg p.o., week 12): 24.01 g | NOD mouse body weight ([6]; 0.1 mg/kg p.o., week 13): 23.69 g | NOD mouse body weight ([6]; 0.1 mg/kg p.o., week 14): 24.1 g | NOD mouse body weight ([6]; 0.1 mg/kg p.o., week 15): 24.6 g | NOD mouse body weight ([6]; 0.1 mg/kg p.o., week 16): 25 g | NOD mouse body weight ([6]; 0.1 mg/kg p.o., week 17): 24.6 g | NOD mouse body weight ([6]; 0.1 mg/kg p.o., week 18): 25.1 g | NOD mouse body weight ([6]; 0.1 mg/kg p.o., week 19): 25.6 g | NOD mouse body weight ([6]; 0.1 mg/kg p.o., week 20): 25.2 g | NOD mouse body weight ([6]; 0.1 mg/kg p.o., week 21): 25.6 g | NOD mouse body weight ([6]; 0.1 mg/kg p.o., week 22): 25.8 g | NOD mouse body weight ([6]; 0.1 mg/kg p.o., week 23): 25.5 g | NOD mouse body weight ([6]; 0.1 mg/kg p.o., week 24): 26.8 g | NOD mouse body weight ([6]; 0.1 mg/kg p.o., week 25): 26.4 g | NOD mouse body weight ([6]; 0.1 mg/kg p.o., week 26): 26.7 g | NOD mouse body weight ([6]; 0.1 mg/kg p.o., week 27): 26.5 g | NOD mouse body weight ([6]; 0.2 mg/kg p.o., week 8): 21.25 g | NOD mouse body weight ([6]; 0.2 mg/kg p.o., week 9): 21.75 g | NOD mouse body weight ([6]; 0.2 mg/kg p.o., week 10): 22.06 g | NOD mouse body weight ([6]; 0.2 mg/kg p.o., week 11): 22.99 g | NOD mouse body weight ([6]; 0.2 mg/kg p.o., week 12): 24.21 g | NOD mouse body weight ([6]; 0.2 mg/kg p.o., week 13): 24.4 g | NOD mouse body weight ([6]; 0.2 mg/kg p.o., week 14): 24.34 g | NOD mouse body weight ([6]; 0.2 mg/kg p.o., week 15): 24.53 g | NOD mouse body weight ([6]; 0.2 mg/kg p.o., week 16): 25.01 g | NOD mouse body weight ([6]; 0.2 mg/kg p.o., week 17): 24.33 g | NOD mouse body weight ([6]; 0.2 mg/kg p.o., week 18): 24.89 g | NOD mouse body weight ([6]; 0.2 mg/kg p.o., week 19): 25.29 g | NOD mouse body weight ([6]; 0.2 mg/kg p.o., week 20): 24.9 g | NOD mouse body weight ([6]; 0.2 mg/kg p.o., week 21): 25.41 g | NOD mouse body weight ([6]; 0.2 mg/kg p.o., week 22): 26.36 g | NOD mouse body weight ([6]; 0.2 mg/kg p.o., week 23): 25.8 g | NOD mouse body weight ([6]; 0.2 mg/kg p.o., week 24): 25.63 g | NOD mouse body weight ([6]; 0.2 mg/kg p.o., week 25): 26.12 g | NOD mouse body weight ([6]; 0.2 mg/kg p.o., week 26): 27.15 g | NOD mouse body weight ([6]; 0.2 mg/kg p.o., week 27): 26.56 g
